# Several values for one entry are separate records, joined by “and”; a condition that tells them apart may be missing. Equal entries are not always repeated.
# What was measured:
# [1] = tested on: NQO1 activation in BEAS-2B cells; assay: BEAS-2B cellular MTT assay of NQO1 activation, 0% HSA; format: cell-based
# Procedure, shortened: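 BEAS-2B cells grown in BEBM with BEGM SingleQuots (no GA-1000), kept below 70% confluence, seeded on collagen plates at a density giving 95-100% confluence after 48 h. Plates seeded in medium without HSA (0% HSA condition).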
# [2] = tested on: NQO1 activation in BEAS-2B cells; assay: BEAS-2B cellular MTT assay of NQO1 activation, 0.3% HSA; format: cell-based
# Procedure, shortened: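 BEAS-2B cells (<70% confluent in culture, BEBM/SingleQuots without GA-1000) seeded in collagen plates with 0.3% or 0% HSA, reaching 95-100% confluency after 48 h at 37 °C, 5% CO2; MTT read-out.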
# [3] = molecular target: HIS-Keap1 full length / Biotin-Nrf2 (16-mer) (Homo sapiens, UniProt Q14145); assay: biochemical
# [4] = Homo sapiens, serum free, read-out: BEAS EC50 (nM) serum free
# [5] = serum free, read-out: BEAS EC50 (nM) serum free
# [6] = Homo sapiens, BEAS+, read-out: BEAS+ EC50
# [7] = Homo sapiens, Serum Free W, read-out: BEAS EC50 (nM) Serum Free W
# [8] = Serum Free W, read-out: BEAS EC50 (nM) Serum Free W
# [9] = BEAS+ W, read-out: BEAS+ W EC50
# [10] = Homo sapiens, BEAS+ W, read-out: BEAS+ W EC50
# Chain of HIS-Keap1 full length / Biotin-Nrf2 (16-mer) (Q14145 whole entry): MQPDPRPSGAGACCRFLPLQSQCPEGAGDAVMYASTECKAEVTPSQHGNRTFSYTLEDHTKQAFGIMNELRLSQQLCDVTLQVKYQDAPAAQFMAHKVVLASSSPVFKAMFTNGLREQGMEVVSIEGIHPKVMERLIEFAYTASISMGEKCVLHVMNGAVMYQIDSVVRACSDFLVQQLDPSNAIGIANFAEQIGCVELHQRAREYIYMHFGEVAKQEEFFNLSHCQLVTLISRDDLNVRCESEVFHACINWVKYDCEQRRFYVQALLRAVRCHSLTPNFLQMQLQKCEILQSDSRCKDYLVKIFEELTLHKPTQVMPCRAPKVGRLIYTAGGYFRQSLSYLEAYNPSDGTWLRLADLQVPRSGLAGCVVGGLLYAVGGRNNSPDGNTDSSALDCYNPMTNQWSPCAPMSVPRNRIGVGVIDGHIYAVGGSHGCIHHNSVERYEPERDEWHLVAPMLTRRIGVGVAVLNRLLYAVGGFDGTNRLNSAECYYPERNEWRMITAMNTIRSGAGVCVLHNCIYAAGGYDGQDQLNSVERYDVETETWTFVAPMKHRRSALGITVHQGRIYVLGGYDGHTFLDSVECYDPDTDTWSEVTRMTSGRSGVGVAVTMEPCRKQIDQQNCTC
SMILES,"EC50 [1, 4]","EC50 [1, 5]","EC50 ([2]; BEAS+, read-out: BEAS+ EC50)","EC50 [2, 6]",IC50 [3],"EC50 [1, 7]","EC50 [1, 8]","EC50 [2, 9]","EC50 [2, 10]"
Cc1c2ccc3c1nnn3CCCOCCOc1cc(F)c(c(F)c1)C(=O)N1CCc3ccc(cc3C1)[C@@H]2[C@H](C)C(=O)O [Compound 366],580 nM,442 nM,1.18 µM,1.07 µM,0.0056 µM and 0.0053 µM,,,,
Cc1cc2ccc1OCCCCCn1nnc3c(C)c(ccc31)C(CC(=O)O)c1ccc3c(c1)CN(CC3)C2=O (centres unmarked) [Compound 261],89.8 nM,93 nM,0.113 µM,0.198 µM,0.003 µM,,,,
Cc1c2ccc3c1nnn3CCCCC(F)(F)Oc1ccc(cc1)C(=O)N1CCc3ccc(cc3C1)C2CC(=O)O (centres unmarked) [Compound 304],18.3 nM,,0.029 µM,0.0251 µM,< 0.0001 µM and 0.0002 µM,,,,
Cc1cc2cnc1OCC/C=C/Cc1ccc(cc1)C(=O)N1CCc3ccc(cc3C1)[C@@H]2[C@@H](C)C(=O)O [Compound 83],,,,,4.42 µM and 3.91 µM,> 1000 nM,1780 nM,8.44 µM,> 10 µM
Cc1c2ccc3c1nnn3CCCCCc1ccc(cc1F)C(=O)N1CCc3ccc(cc3C1)C2CC(=O)O (centres unmarked) [Compound 267],3.9 nM,,,0.0053 µM,0.0024 µM and 0.0023 µM,,,,
Cn1c2cc3cc(cnc31)CCCCCn1nnc3c(Cl)c(ccc31)C(CC(=O)O)c1ccc3c(c1)CN(CC3)C2=O (centres unmarked) [Compound 174],5.8 nM,7.3 nM,0.0155 µM,0.0294 µM,0.002 µM and 0.0021 µM,,,,
Cc1c2ccc3c1nnn3CCCCCc1ccc3c(c1)nc(n3C)C(=O)N1CCc3ccc(cc3C1)C2CC(=O)O (centres unmarked) [Compound 205],318 nM,329 nM,0.507 µM,0.372 µM,0.0027 µM and 0.003 µM,,,,
Cc1c2cnc3c1nnn3CCCCCCOc1ccc(c(F)c1)C(=O)N1CCc3ccc(cc3C1)C2CC(=O)O (centres unmarked) [Compound 222],17.2 nM,14.2 nM,0.0386 µM,0.0474 µM,0.0016 µM and 0.0015 µM,,,,
Cc1c2cnc3c1nnn3CCCCCCc1cccc(c1)C(=O)N1CCc3ccc(cc3C1)C2CC(=O)O (centres unmarked) [Compound 355],,,,,0.0091 µM and 0.0093 µM,810 nM,1300 nM,3.86 µM,4.7 µM
Cc1c2ccc3c1nnn3CCCCCCOc1cc(F)c(c(F)c1)C(=O)N1CCc3ccc(cc3C1)C2CC(=O)O (centres unmarked) [Compound 315],2.2 nM,,,0.0259 µM,0.0007 µM and 0.0003 µM,,,,
Cc1cc2ccc1C(=O)N1CCc3ccc(cc3C1)C(CC(=O)O)c1ccc(nc1C)OCCCCO2 (centres unmarked) [Compound 178],1160 nM,1140 nM,0.933 µM,1.41 µM,0.113 µM and 0.105 µM,,,,
O=C(O)CC1c2ccc3c(c2)CN(CC3)C(=O)c2ncc(cc2F)CCCCCCn2nnc3c(Cl)c1ccc32 (centres unmarked) [Compound 224],400 nM,296 nM,0.314 µM,0.321 µM,0.0021 µM and 0.002 µM,,,,
Cc1c2ccc3c1nnn3CCCCCc1cnc(c(F)c1)C(=O)N1CCc3ccc(cc3C1)C2CC(=O)O (centres unmarked) [Compound 219],180 nM,208 nM,0.208 µM,0.228 µM,0.0013 µM and 0.0015 µM,,,,
Cc1cc2cc3c1CCN(C3)C(=O)c1ccc(cc1)CCCCCCn1nnc3c(C)c(cnc31)C2CC(=O)O (centres unmarked) [Compound 106],,,,,0.0009 µM and 0.0007 µM,4.5 nM,5.6 nM,0.0448 µM,0.0355 µM
C[C@@H](C(=O)O)[C@H]1c2ccc3c(c2)CN(CC3)C(=O)c2c(F)cc(cc2F)OCCCCCCn2nnc3cc1ccc32 [Compound 258],9080 nM,9480 nM,2.53 µM,2.64 µM,0.0049 µM,,,,
Cc1cc2ccc1C(=O)N1CCc3ccc(cc3C1)C(CC(=O)O)c1ccc3c(nnn3CCCCCCO2)c1C (centres unmarked) [Compound 297],1.8 nM,,,0.0029 µM,0.0002 µM,,,,
O=C(O)CC1c2ccc3c(c2)CN(CC3)C(=O)c2c(F)cc(cc2F)CCCCCCn2nnc3cc1ccc32 (centres unmarked) [Compound 243],40.7 nM,48.7 nM,0.104 µM,0.0718 µM,0.0026 µM,,,,
Cc1c2ccc3c1nnn3CCCCCCc1ccc3c(c1)cc(n3CC(F)F)C(=O)N1CCc3ccc(cc3C1)[C@@H]2CC(=O)O [Compound 39],,,,,0.001 µM and 0.0011 µM,5.9 nM,4.2 nM and 4.3 nM,0.531 µM and 0.59 µM,0.492 µM
Cc1c2ccc3c1nnn3CCCCCCOc1ccc(cc1F)C(=O)N1CCc3ccc(cc3C1)C2CC(=O)O (centres unmarked) [Compound 270],56.5 nM,,,0.0559 µM,0.004 µM and 0.0036 µM,,,,
